This passage reports MIC results from patent publication US4767762A, “Tricyclic quinoline and naphthyride antibacterials” (Abbott Laboratories, priority 1986, dated 1988).

Common to all, as to assay: in vitro antibacterial activity (MIC), conventional agar dilution
Holding throughout (type): cell-based
In general terms: In agar dilution the substance is mixed into plates at graded concentrations.

The test system of assay [1] is Acinetobacter sp CMX 669. The note with it: CMX669, brain-heart infusion agar, inoculum 10^4 /plate. As to the method:
(§1) The in vitro antibacterial activity is determined by conventional agar dilution procedures. A brain-heart infusion agar medium containing the drug is inoculated with a microbial culture cultivated on a brain-infusion broth (Difco 0037-01-6) at 36° C. for 18 hours and then observes for growth of the microorganism. The minimum concentration at which growth of the microorganism is inhibited is taken as MIC (ug/ml). The inoculum size is 10^4 /plate.

Assay [2] has as its system E. coli Juhl. The note with it: Escherichia coli, brain-heart infusion agar, inoculum 10^4 /plate. The procedure: as §1
Assay [3] has as its system Ent. aerogenes ATCC 13048. The note with it: Klebsiella aerogenes, ATCC13048, brain-heart infusion agar, inoculum 10^4 /plate. The procedure: as §1
For assay [4], the system named is Ent. faecium ATCC 8043. The note with it: Enterococcus faecium, ATCC8043, brain-heart infusion agar, inoculum 10^4 /plate. As to the method: as §1
In assay [5] the test system is K. pneumoniae ATCC 8045. The note with it: Klebsiella pneumoniae, ATCC8045, brain-heart infusion agar, inoculum 10^4 /plate. As to the method: as §1
For assay [6], the system named is P. aeruginosa A5007. The note with it: Pseudomonas aeruginosa, brain-heart infusion agar, inoculum 10^4 /plate. As to the method:
as §1

Assay [7] concerns P. stuartii CMX 640. The note with it: Providencia stuartii, CMX640, brain-heart infusion agar, inoculum 10^4 /plate. As to the method:
as §1

Assay [8] relates to Stap. aureus ATCC-6538p. The note with it: Staphylococcus aureus, ATCC6538P, brain-heart infusion agar, inoculum 10^4 /plate. As to the method:
as §1

Assay [9] concerns Stap. epidermis 3519. The note with it: brain-heart infusion agar, inoculum 10^4 /plate. As to the method: as §1
In assay [10] the test system is Strep. Pyogenes EES61. The note with it: Streptococcus pyogenes, brain-heart infusion agar, inoculum 10^4 /plate. The procedure: as §1

Broadly, the MIC is the smallest concentration in the dilution series that meets the test's criterion for growth inhibition. Read a low MIC as greater potency.

Converted amounts (≈) assume the structure as drawn.

Take `CCn1c2s[nH]c(=O)c2c(=O)c2cc(F)c(N3CCNC(C)C3)c(F)c21` (stereo not shown) [46(xx), 9-ethyl-6,8-difluoro-7-(3-methyl-1-piperazinyl)-2,3,4,9-tetrahydroisothiazolo[5,4-b]quinoline-3,4-dione]: the MIC in [1] came out at 0.1 µg/mL (≈ 0.263 µM); in assay [2], 0.05 µg/mL (≈ 0.131 µM); in assay [3] it was 0.1 µg/mL (≈ 0.263 µM); in assay [4] it was 0.78 µg/mL (≈ 2.05 µM); in assay [5], 0.005 µg/mL (≈ 0.0131 µM); in assay [6] it was 1.56 µg/mL (≈ 4.1 µM). The MIC is 3.1 µg/mL (≈ 8.15 µM) in [7], 0.1 µg/mL (≈ 0.263 µM) in [8], 0.2 µg/mL (≈ 0.526 µM) in assay [9] and 0.39 µg/mL (≈ 1.03 µM) in assay [10].
